Data taken from ChEMBL document CHEMBL2086247, “Protein-ligand crystal structures can guide the design of selective inhibitors of the FGFR tyrosine kinase” (J Med Chem, 2012).
pIC50: −log10 of the molar value.

Key:
[1] = molecular target: T1, Fibroblast growth factor receptor 1 (Homo sapiens, UniProt P11362); test: biochemical
Description: Inhibition of recombinant N terminal GST-tagged human FGFR1 (456 to 765) expressed in baculovirus infected Sf21 cells after 40 mins by caliper mobility shift assay

[2] = molecular target: T2, Insulin-like growth factor 1 receptor (Homo sapiens, UniProt P08069); test: Inhibition of human IGF1R phosphorylation expressed in IGF-1-stimulated knockout mouse R+ cells treated 30 mins before IGF-1 stimulation measured after 20 mins by immunofluorescence
[3] = molecular target: T3, Vascular endothelial growth factor receptor 2 (Homo sapiens, UniProt P35968); test: Inhibition of recombinant N terminal GST-tagged human KDR (805 to 1356) expressed in baculovirus infected Sf9 cells after 90 mins by caliper mobility shift assay
[4] = molecular target: T3, Vascular endothelial growth factor receptor 2; test: Inhibition of human KDR phosphorylation expressed in VEGF-stimulated HUVEC treated 90 mins before VEGF stimulation measured after 5 mins by ELISA; type: cell-based
[5] = molecular target: T1, Fibroblast growth factor receptor 1
Description: Inhibition of human FGFR1 phosphorylation expressed in COS1 cells after 1 hr by immunoblotting

[6] = molecular target: T2, Insulin-like growth factor 1 receptor; test: Inhibition of recombinant N terminal His6-tagged human IGF1R (959 to end) expressed in baculovirus infected Sf21 cells after 80 mins by caliper mobility shift assay
[7] = molecular target: Dual specificity mitogen-activated protein kinase kinase 1 (Homo sapiens, UniProt Q02750); test: Inhibition of MEK1 fused with GST by autoradiography
Dual specificity mitogen-activated protein kinase kinase 1, sequence (Q02750 whole entry, the tested form may be a part): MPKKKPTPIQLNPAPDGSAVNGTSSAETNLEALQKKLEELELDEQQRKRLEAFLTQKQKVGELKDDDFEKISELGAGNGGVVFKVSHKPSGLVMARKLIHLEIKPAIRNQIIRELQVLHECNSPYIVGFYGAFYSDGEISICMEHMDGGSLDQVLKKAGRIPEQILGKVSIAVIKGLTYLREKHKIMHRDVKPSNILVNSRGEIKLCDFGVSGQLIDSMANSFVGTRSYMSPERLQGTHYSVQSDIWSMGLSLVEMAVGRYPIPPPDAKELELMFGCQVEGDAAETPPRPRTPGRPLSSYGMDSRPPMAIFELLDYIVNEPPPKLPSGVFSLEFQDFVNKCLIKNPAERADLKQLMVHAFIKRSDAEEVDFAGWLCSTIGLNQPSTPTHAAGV

T1 sequence (P11362 whole entry): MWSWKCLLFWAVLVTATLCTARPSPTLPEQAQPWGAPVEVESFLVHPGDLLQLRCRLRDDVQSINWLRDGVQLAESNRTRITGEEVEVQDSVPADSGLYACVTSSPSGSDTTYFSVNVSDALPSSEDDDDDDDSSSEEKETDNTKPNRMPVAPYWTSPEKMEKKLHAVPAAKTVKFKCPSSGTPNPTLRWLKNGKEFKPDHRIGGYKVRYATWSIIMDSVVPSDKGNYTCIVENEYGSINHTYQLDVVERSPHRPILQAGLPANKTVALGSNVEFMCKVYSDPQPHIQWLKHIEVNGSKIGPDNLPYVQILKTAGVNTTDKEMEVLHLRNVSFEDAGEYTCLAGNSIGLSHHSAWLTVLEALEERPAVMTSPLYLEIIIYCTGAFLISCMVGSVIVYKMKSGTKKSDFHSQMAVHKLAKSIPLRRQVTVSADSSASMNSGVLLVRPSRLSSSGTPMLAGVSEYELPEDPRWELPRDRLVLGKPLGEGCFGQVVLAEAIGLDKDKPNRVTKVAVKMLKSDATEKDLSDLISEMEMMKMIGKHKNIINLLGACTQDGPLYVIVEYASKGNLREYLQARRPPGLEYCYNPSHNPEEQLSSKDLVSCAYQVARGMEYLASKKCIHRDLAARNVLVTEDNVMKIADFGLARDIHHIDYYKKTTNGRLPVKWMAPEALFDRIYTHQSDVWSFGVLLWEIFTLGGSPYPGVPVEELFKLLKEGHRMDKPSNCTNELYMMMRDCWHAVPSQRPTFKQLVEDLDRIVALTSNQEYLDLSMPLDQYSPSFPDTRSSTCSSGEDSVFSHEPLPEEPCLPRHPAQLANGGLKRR
T3 sequence (P35968 whole entry): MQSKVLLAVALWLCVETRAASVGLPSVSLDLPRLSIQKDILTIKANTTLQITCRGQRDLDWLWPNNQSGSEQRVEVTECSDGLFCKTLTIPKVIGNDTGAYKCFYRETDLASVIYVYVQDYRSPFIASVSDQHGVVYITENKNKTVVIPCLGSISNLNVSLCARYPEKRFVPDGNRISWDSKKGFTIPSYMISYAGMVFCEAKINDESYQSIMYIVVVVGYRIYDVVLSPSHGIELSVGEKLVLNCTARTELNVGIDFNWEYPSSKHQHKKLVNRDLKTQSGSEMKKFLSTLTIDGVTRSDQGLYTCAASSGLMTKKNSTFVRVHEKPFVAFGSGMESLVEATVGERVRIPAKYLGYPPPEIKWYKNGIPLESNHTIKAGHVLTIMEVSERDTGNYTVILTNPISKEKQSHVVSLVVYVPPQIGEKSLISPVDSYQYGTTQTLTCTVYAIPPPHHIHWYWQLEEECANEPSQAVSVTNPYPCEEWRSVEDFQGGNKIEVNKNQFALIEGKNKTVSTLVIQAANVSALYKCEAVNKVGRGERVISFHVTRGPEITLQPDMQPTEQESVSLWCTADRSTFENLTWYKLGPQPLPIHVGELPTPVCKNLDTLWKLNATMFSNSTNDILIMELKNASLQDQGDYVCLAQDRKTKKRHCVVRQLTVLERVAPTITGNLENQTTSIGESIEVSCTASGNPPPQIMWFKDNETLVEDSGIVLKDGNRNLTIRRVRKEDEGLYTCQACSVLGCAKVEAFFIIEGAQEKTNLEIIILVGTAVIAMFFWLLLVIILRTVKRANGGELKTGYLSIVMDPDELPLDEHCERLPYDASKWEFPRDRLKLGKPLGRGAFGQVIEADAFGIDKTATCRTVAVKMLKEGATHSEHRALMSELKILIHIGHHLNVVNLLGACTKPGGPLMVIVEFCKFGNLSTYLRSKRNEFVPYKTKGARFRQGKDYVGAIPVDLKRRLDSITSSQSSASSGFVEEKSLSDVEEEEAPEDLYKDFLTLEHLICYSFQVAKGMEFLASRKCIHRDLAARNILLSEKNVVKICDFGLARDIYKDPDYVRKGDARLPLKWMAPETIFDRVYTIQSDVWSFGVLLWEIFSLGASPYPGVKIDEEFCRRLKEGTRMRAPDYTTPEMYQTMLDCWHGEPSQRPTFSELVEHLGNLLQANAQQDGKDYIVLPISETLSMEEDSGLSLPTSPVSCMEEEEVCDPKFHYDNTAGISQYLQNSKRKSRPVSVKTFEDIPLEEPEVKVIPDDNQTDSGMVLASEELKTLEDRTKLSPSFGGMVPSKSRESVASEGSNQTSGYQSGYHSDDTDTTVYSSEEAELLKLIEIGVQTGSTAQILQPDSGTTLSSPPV

Cc1cc(Nc2nc(NCCc3cccnc3)ncc2Br)[nH]n1
pIC50 [1]: 6.30 | pIC50 [2]: 5.40 | pIC50 [3]: 6.20 | pIC50 [4]: < 5.00 | pIC50 [5]: 5.60 | pIC50 [6]: 5.20

C=CCNc1ncc(Br)c(Nc2cc(C)[nH]n2)n1
pIC50 [2]: 5.20 | pIC50 [3]: 6.00 | pIC50 [4]: 6.10 | pIC50 [6]: 5.40

Cc1cc(Nc2nc(NCc3cc(C)no3)ncc2Br)[nH]n1
pIC50 [1]: 7.20 | pIC50 [2]: 5.20 | pIC50 [3]: 6.20 | pIC50 [4]: 5.20 | pIC50 [5]: 6.80 | pIC50 [6]: 5.10

Cc1cc(Nc2nc(NCc3cc(C(C)(C)C)no3)ncc2Br)[nH]n1
pIC50 [1]: 7.50 | pIC50 [2]: 5.50 | pIC50 [3]: 5.40 | pIC50 [4]: < 5.00 | pIC50 [5]: 6.80 | pIC50 [6]: 5.00

COCCCc1cc(Nc2nc(NCc3cc(C)no3)ncc2Br)[nH]n1
pIC50 [1]: 7.20 | pIC50 [2]: < 4.70 | pIC50 [3]: 5.90 | pIC50 [4]: < 5.00 | pIC50 [5]: 6.10 | pIC50 [6]: 4.70

CCCc1cc(Nc2nc(NCc3cc(C)no3)ncc2Br)n[nH]1
pIC50 [1]: 8.00 | pIC50 [2]: 6.30 | pIC50 [3]: 6.80 | pIC50 [4]: 5.20 | pIC50 [5]: 7.00 | pIC50 [6]: 6.40

Cc1cc(CNc2ncc(Br)c(Nc3cc(CCc4ccccc4)[nH]n3)n2)on1
pIC50 [1]: 8.60 | pIC50 [2]: 5.00 | pIC50 [3]: 7.60 | pIC50 [4]: 5.80 | pIC50 [5]: 7.20 | pIC50 [6]: 5.20

COc1cc(CCc2cc(Nc3ccnc(NCc4cc(C)no4)n3)n[nH]2)cc(OC)c1
pIC50 [1]: 8.70 | pIC50 [2]: 5.30 | pIC50 [3]: 7.10 | pIC50 [4]: 5.80 | pIC50 [5]: > 7.80 | pIC50 [6]: 5.20

Cc1cc(CNc2ncc(Cl)c(Nc3cc(C)[nH]n3)n2)on1
pIC50 [3]: 6.30 | pIC50 [6]: 5.10

Cc1cc(CNc2nccc(Nc3cc(C)[nH]n3)n2)on1
pIC50 [3]: 6.00 | pIC50 [6]: 4.90

COCCCc1cc(Nc2ccnc(NCc3cc(C)no3)n2)n[nH]1
pIC50 [3]: 5.60

Cc1cc(CNc2nccc(Nc3cc(CCc4ccccc4)[nH]n3)n2)on1
pIC50 [3]: 6.90

Cc1cc(Nc2nc(NCc3ccccn3)ncc2Br)n[nH]1
pIC50 [1]: 6.70 | pIC50 [3]: 5.80 | pIC50 [6]: 4.90

Cc1cc(Nc2nc(NCCCc3c[nH]nc3C)ncc2Br)n[nH]1
pIC50 [1]: 6.90 | pIC50 [3]: 6.30 | pIC50 [6]: 5.20

Cc1cc(Nc2nc(NCCc3ccco3)ncc2Br)n[nH]1
pIC50 [1]: 6.70 | pIC50 [3]: 6.70 | pIC50 [6]: 5.40

Cc1cnc(CNc2ncc(Br)c(Nc3cc(C)[nH]n3)n2)cn1
pIC50 [1]: 7.00 | pIC50 [3]: 6.00 | pIC50 [6]: 4.90

Cc1cc(CCNc2ncc(Br)c(Nc3cc(C)[nH]n3)n2)on1
pIC50 [1]: 6.40 | pIC50 [3]: 6.30 | pIC50 [6]: 4.80

Cc1cc(Nc2nc(NCc3ncccc3C)ncc2Br)n[nH]1
pIC50 [3]: 6.30 | pIC50 [6]: 4.30

Cc1cc(Nc2nc(NCc3cc(C(=O)N4CCCC4)no3)ncc2Br)n[nH]1
pIC50 [3]: 4.80 | pIC50 [6]: 5.00

Cc1cc(Nc2ccnc(NCc3cc(C4CC4)no3)n2)n[nH]1
pIC50 [1]: 7.60 | pIC50 [3]: 6.10 | pIC50 [6]: 5.00

Cc1cc(Nc2ccnc(NCc3cc(C(N)=O)no3)n2)[nH]n1
pIC50 [1]: 7.00 | pIC50 [3]: 5.90 | pIC50 [6]: 5.10

Cc1cc(CNc2nccc(Nc3cc(CO)[nH]n3)n2)on1
pIC50 [3]: 4.70 | pIC50 [6]: 4.40

CCc1cc(Nc2nc(NCc3ccccn3)ncc2Br)n[nH]1
pIC50 [1]: 7.40 | pIC50 [3]: 6.30 | pIC50 [6]: 5.50

CCc1cc(Nc2nc(NCc3cc(-c4ccccn4)no3)ncc2Br)n[nH]1
pIC50 [3]: 5.50 | pIC50 [6]: 7.00

CCCc1cc(Nc2nc(NCc3cccnc3)ncc2Br)n[nH]1
pIC50 [3]: 6.90 | pIC50 [6]: 5.80

CC(C)c1cc(Nc2nc(NCc3cccnc3)ncc2Br)n[nH]1
pIC50 [3]: 6.40 | pIC50 [6]: 6.40

COCCCc1cc(Nc2ccnc(NCc3cc(C4CC4)no3)n2)n[nH]1
pIC50 [3]: 5.80 | pIC50 [6]: 4.90

COCCCc1cc(Nc2ccnc(NCc3cc(C(N)=O)no3)n2)[nH]n1
pIC50 [3]: 5.90 | pIC50 [6]: 4.00

COc1cc(CCc2cc(Nc3ccnc(NCc4ccccn4)n3)[nH]n2)cc(OC)c1
pIC50 [1]: 8.30 | pIC50 [3]: 6.40 | pIC50 [6]: 4.10

COc1cc(CCc2cc(Nc3ccnc(NCc4cc(C)on4)n3)n[nH]2)cc(OC)c1
pIC50 [1]: 8.70 | pIC50 [3]: 6.90 | pIC50 [6]: 4.90

CCN(CC)CCCCNc1ncc2cc(-c3cc(OC)cc(OC)c3)c(NC(=O)NC(C)(C)C)nc2n1 [PD-173074]
pIC50 [7]: < 4.30
